Results reported in ChEMBL document CHEMBL1201862, “PubChem BioAssay data set” (2004).
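Grown in 96-well plates, cells were treated for 48 hours with each compound at five concentrations. Insufficient inhibition: endpoint recorded as highest concentration tested. GI50 = concentration required for 50% inhibition of growth.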 The source made the active and inactive calls. No stated cut-off is given here; in the data, active = GI50 up to about 1.1 µM and inactive = higher.

Assays:
Assay in all cases: DTP human tumour cell line panel, 48 h
786-0 = test system: 786-0
CCRF-CEM = test system: CCRF-CEM
HCC 2998 = test system: HCC 2998
HT-29 = test system: HT-29
KM12 = test system: KM12
LOX IMVI = test system: LOX IMVI
OVCAR-3 = test system: OVCAR-3
OVCAR-4 = test system: OVCAR-4
OVCAR-8 = test system: OVCAR-8
RPMI-8226 = test system: RPMI-8226
RXF 393 = test system: RXF 393
SF-268 = test system: SF-268
SF-295 = test system: SF-295
SK-MEL-2 = test system: SK-MEL-2
SK-MEL-5 = test system: SK-MEL-5
TK-10 = test system: TK-10
UACC-62 = test system: UACC-62
UO-31 = test system: UO-31

Measured: GI50

CCNc1c(C(=O)N(CC)CC)c(=O)[nH]c2ncccc12
inactive: 786-0 > 100 µM | CCRF-CEM > 100 µM | HCC 2998 > 100 µM | HT-29 > 100 µM | KM12 > 100 µM | LOX IMVI > 100 µM | OVCAR-3 > 100 µM | OVCAR-4 > 100 µM | OVCAR-8 > 100 µM | RPMI-8226 > 100 µM | RXF 393 > 100 µM | SF-268 > 100 µM | SF-295 > 100 µM | SK-MEL-2 > 100 µM | SK-MEL-5 > 100 µM | TK-10 > 100 µM | UACC-62 > 100 µM | UO-31 > 100 µM

O=C(/C=C1\NC(=O)c2ccccc2N1)c1ccncc1
inactive: 786-0 > 100 µM | CCRF-CEM > 100 µM | HCC 2998 > 100 µM | HT-29 > 100 µM | OVCAR-3 > 100 µM | OVCAR-4 > 100 µM | OVCAR-8 > 100 µM | RPMI-8226 > 100 µM | SF-268 > 100 µM | SF-295 > 100 µM | SK-MEL-2 > 100 µM | SK-MEL-5 > 100 µM | TK-10 > 100 µM | UACC-62 > 100 µM | UO-31 > 100 µM

CCOC(=O)Nc1ccc(S(=O)(=O)OC)cc1.CCOC(=O)Nc1ccc(S(=O)(=O)OC)cc1.NNC(=O)c1ccncc1
inactive: 786-0 > 50 µM | CCRF-CEM 9.08 µM | HCC 2998 > 50 µM | HT-29 44.7 µM | KM12 > 50 µM | LOX IMVI > 50 µM | OVCAR-3 > 50 µM | OVCAR-4 > 50 µM | OVCAR-8 > 50 µM | RPMI-8226 14.6 µM | SF-268 > 50 µM | SF-295 > 50 µM | SK-MEL-2 > 50 µM | SK-MEL-5 > 50 µM | TK-10 > 50 µM | UACC-62 > 50 µM | UO-31 > 50 µM

CCn1c(C)nn2c(=O)c3ccccc3nc2c1=O
inactive: 786-0 > 100 µM | CCRF-CEM > 100 µM | HCC 2998 > 100 µM | HT-29 > 100 µM | KM12 > 100 µM | LOX IMVI > 100 µM | OVCAR-3 > 100 µM | OVCAR-4 > 100 µM | OVCAR-8 > 100 µM | RPMI-8226 > 100 µM | SF-295 > 100 µM | SK-MEL-2 > 100 µM | SK-MEL-5 > 100 µM | TK-10 > 100 µM | UACC-62 > 100 µM

COC(=O)c1ccccc1N(C(=O)c1ccccc1)c1ccccc1C
inactive: 786-0 50 µM | CCRF-CEM 27.3 µM | HCC 2998 60 µM | HT-29 39.4 µM | KM12 32.7 µM | LOX IMVI 48.1 µM | OVCAR-3 34.6 µM | OVCAR-4 44.2 µM | OVCAR-8 37.5 µM | RXF 393 30.7 µM | SF-268 > 100 µM | SF-295 44.2 µM | SK-MEL-2 45 µM | SK-MEL-5 30.8 µM | TK-10 41.6 µM | UACC-62 93.8 µM | UO-31 24.8 µM

CC1=NN(c2ccccc2)C(=O)C1/N=N/c1ccc(Br)cc1C (configuration not stated)
inactive: 786-0 82.2 µM | CCRF-CEM > 100 µM | HCC 2998 > 100 µM | HT-29 > 100 µM | KM12 > 100 µM | OVCAR-3 > 100 µM | OVCAR-4 62.7 µM | OVCAR-8 95.9 µM | RPMI-8226 > 100 µM | RXF 393 50.5 µM | SF-268 > 100 µM | SF-295 72.8 µM | SK-MEL-2 56.6 µM | SK-MEL-5 > 100 µM | TK-10 39.4 µM | UACC-62 > 100 µM

O=c1c2cc(Cl)ccc2sc2cccc(Cl)c12
inactive: 786-0 > 100 µM | CCRF-CEM > 100 µM | HT-29 > 100 µM | KM12 > 100 µM | LOX IMVI > 100 µM | OVCAR-3 > 100 µM | OVCAR-4 > 100 µM | OVCAR-8 > 100 µM | RPMI-8226 > 100 µM | RXF 393 > 100 µM | SF-268 > 100 µM | SF-295 > 100 µM | SK-MEL-2 > 100 µM | TK-10 > 100 µM | UACC-62 > 100 µM | UO-31 > 100 µM

CC(C)c1ccc(O)c(Cc2cc(C(C)C)cc(Cc3cc(C(C)C)ccc3O)c2O)c1
inactive: 786-0 1.7 µM | CCRF-CEM 3.39 µM | HCC 2998 1.78 µM | HT-29 2.25 µM | KM12 1.97 µM | OVCAR-3 1.65 µM | OVCAR-4 1.39 µM | OVCAR-8 2.09 µM | RPMI-8226 2.08 µM | SF-268 1.82 µM | SF-295 1.88 µM | SK-MEL-2 1.61 µM | SK-MEL-5 1.62 µM | TK-10 1.93 µM | UACC-62 2.38 µM | UO-31 1.68 µM

CCN(CC)c1ccc(/N=N/c2ccc(-c3nc4ccc[n+](C)c4o3)cc2)cc1
inactive: 786-0 11.4 µM | CCRF-CEM 3.27 µM | HT-29 11.3 µM | KM12 11.1 µM | LOX IMVI 4.3 µM | OVCAR-3 10 µM | OVCAR-4 12 µM | OVCAR-8 5.11 µM | RPMI-8226 2.75 µM | RXF 393 10.7 µM | SF-268 12.6 µM | SF-295 14.8 µM | SK-MEL-2 12 µM | SK-MEL-5 2.97 µM | TK-10 12.3 µM | UACC-62 9.27 µM | UO-31 12.7 µM

CN(C)c1ccc(C2CC(=O)C(C#N)=C(c3ccccc3)NN2C)cc1 (configuration not stated)
inactive: 786-0 8.73 µM | HCC 2998 22.1 µM | HT-29 5.14 µM | KM12 6.04 µM | LOX IMVI 4.93 µM | OVCAR-4 31.6 µM | RPMI-8226 13.9 µM | RXF 393 25.2 µM | SF-268 17.2 µM | SF-295 4.2 µM | SK-MEL-2 6.05 µM | SK-MEL-5 3.54 µM | TK-10 > 100 µM

COc1ccc(NC(=O)C(=O)c2c(O)c3ccc(O)cc3oc2=O)c([N+](=O)[O-])c1
inactive: 786-0 > 100 µM | CCRF-CEM > 100 µM | HCC 2998 > 100 µM | HT-29 > 100 µM | KM12 > 100 µM | LOX IMVI > 100 µM | OVCAR-3 > 100 µM | OVCAR-4 > 100 µM | RXF 393 > 100 µM | SF-268 > 100 µM | SF-295 > 100 µM | SK-MEL-2 > 100 µM | SK-MEL-5 > 100 µM | TK-10 > 100 µM | UACC-62 > 100 µM | UO-31 > 100 µM

c1ccc2c3c([nH]c2c1)C1C2CCCCN2C(c2ccncc2)N1CC3 (configuration not stated)
inactive: 786-0 63.4 µM | CCRF-CEM 33 µM | HT-29 33.1 µM | KM12 35.9 µM | LOX IMVI 37.2 µM | OVCAR-3 44.1 µM | OVCAR-4 61.5 µM | OVCAR-8 38.1 µM | RPMI-8226 27.4 µM | RXF 393 29.3 µM | SF-268 > 10 µM | SF-295 38.9 µM | SK-MEL-2 39.4 µM | SK-MEL-5 43 µM | UACC-62 36.5 µM | UO-31 11.5 µM
